Measured values published in patent publication US20230085307A1, “PYRIDAZINONE COMPOUND AND HERBICIDE” (NISSAN CHEMICAL CORPORATION, priority 2019, published 2023).

The compounds below were run on Japanese bulrush (assay: Test Example 1: herbicidal activity, application before weed generation under submerged conditions (Table 16, symbol B)). Conditions: 320 g/ha applied herbicide.
Format: in vivo, Japanese bulrush (Schoenoplectus juncoides)
Method in brief: (§1)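 Emulsion formulation, water-diluted to set dose, was put onto the flooded surface (4 cm depth, alluvial soil) the same day weeds were sown and 2.5-leaf rice transplanted. After 3 weeks at 25-30 °C under glass, each species was rated 0 (≤5% kill) to 5 (≥90% kill).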
For Cc1nn(C)c(=O)c(-c2c(-c3ccc4c(c3)CCO4)sc3ccccc23)c1O [1-101], the “Herbicidal effect on B: Japanese bulrush (grade 0-5)” value was 5 (Herbicidal rate of 90% or more (almost completely withered)). With CCCC(=O)Oc1c(C)nn(C)c(=O)c1-c1c(-c2ccc3c(c2)CCO3)sc2ccccc12 [1-102] the “Herbicidal effect on B: Japanese bulrush (grade 0-5)” value was 5 (Herbicidal rate of 90% or more (almost completely withered)).

Each compound was assayed on oval-leafed pondweed (assay: Test Example 1: herbicidal activity, application before weed generation under submerged conditions (Table 16, symbol C)). Conditions: 320 g/ha applied herbicide.
Format: in vivo, oval-leafed pondweed (Monochoria vaginalis)
Method in brief: as §1
For Cc1nn(C)c(=O)c(-c2c(-c3ccc4c(c3)CCO4)sc3ccccc23)c1O [1-101], the “Herbicidal effect on C: oval-leafed pondweed (grade 0-5)” value was 5 (Herbicidal rate of 90% or more (almost completely withered)). In the case of CCCC(=O)Oc1c(C)nn(C)c(=O)c1-c1c(-c2ccc3c(c2)CCO3)sc2ccccc12 [1-102], the “Herbicidal effect on C: oval-leafed pondweed (grade 0-5)” value was 4 (Herbicidal rate of 70% or more and less than 90%).

These compounds were tested on Japanese bulrush (assay: Test Example 2: herbicidal activity, application during weed generation under submerged conditions (Table 17, symbol B)). Conditions: AAH 320 g/ha; application during weed generation, submerged conditions.
Format: in vivo, Japanese bulrush (Schoenoplectus juncoides)
Method in brief: (§2)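 Wagner pot, alluvial soil, 4 cm flood; mixed sowing of all species; greenhouse 25° C.–30° C. Emulsifiable formulation, water-diluted to predetermined dose, applied to paddy water at 1–2 leaf stage. Effect rated at 3 wk using the earlier test's scoring criteria.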
In the case of Cc1nn(C)c(=O)c(-c2c(-c3ccc4c(c3)CCO4)sc3ccccc23)c1O [1-101], the “herbicidal effect rating, B: Japanese bulrush” value was 5 (Herbicidal rate of 90% or more (almost completely withered)). With CCCC(=O)Oc1c(C)nn(C)c(=O)c1-c1c(-c2ccc3c(c2)CCO3)sc2ccccc12 [1-102] the “herbicidal effect rating, B: Japanese bulrush” value was 5 (Herbicidal rate of 90% or more (almost completely withered)).

Each compound was assayed on oval-leafed pondweed (assay: Test Example 2: herbicidal activity, application during weed generation under submerged conditions (Table 17, symbol C)). Conditions: AAH 320 g/ha; application during weed generation, submerged conditions.
Format: in vivo, oval-leafed pondweed (Monochoria vaginalis)
Method in brief: as §2
With Cc1nn(C)c(=O)c(-c2c(-c3ccc4c(c3)CCO4)sc3ccccc23)c1O [1-101] the “herbicidal effect rating, C: oval-leafed pondweed” value was 5 (Herbicidal rate of 90% or more (almost completely withered)). In the case of CCCC(=O)Oc1c(C)nn(C)c(=O)c1-c1c(-c2ccc3c(c2)CCO3)sc2ccccc12 [1-102], the “herbicidal effect rating, C: oval-leafed pondweed” value was 5 (Herbicidal rate of 90% or more (almost completely withered)).

Each compound was assayed on green foxtail (assay: Test Example 4: herbicidal effect by soil treatment (Table 19, symbol G)). Conditions: amount of applied herbicide 320 g/ha.
Format: in vivo, green foxtail (Setaria viridis)
Method in brief: (§3)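 Emulsion of test compound, water-diluted to predetermined amount, sprayed on soil after sowing (seed depth ~1.5 cm, sterilized diluvial soil). Greenhouse, 25–30° C. Effect graded at three weeks post-spray.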
For Cc1nn(C)c(=O)c(-c2c(-c3ccc4c(c3)CCO4)sc3ccccc23)c1O [1-101], the “herbicidal effect rating, G: green foxtail” value was 5 (Herbicidal rate of 90% or more (almost completely withered)). In the case of CCCC(=O)Oc1c(C)nn(C)c(=O)c1-c1c(-c2ccc3c(c2)CCO3)sc2ccccc12 [1-102], the “herbicidal effect rating, G: green foxtail” value was 5 (Herbicidal rate of 90% or more (almost completely withered)).

These compounds were tested on barnyard grass (assay: Test Example 4: herbicidal effect by soil treatment (Table 19, symbol H)). Conditions: amount of applied herbicide 320 g/ha.
Format: in vivo, barnyard grass (Echinochloa crus-galli)
Method in brief: as §3
For Cc1nn(C)c(=O)c(-c2c(-c3ccc4c(c3)CCO4)sc3ccccc23)c1O [1-101], the “herbicidal effect rating, H: barnyard grass” value was 5 (Herbicidal rate of 90% or more (almost completely withered)). In the case of CCCC(=O)Oc1c(C)nn(C)c(=O)c1-c1c(-c2ccc3c(c2)CCO3)sc2ccccc12 [1-102], the “herbicidal effect rating, H: barnyard grass” value was 3 (Herbicidal rate of 40% or more and less than 70%).

Each compound was assayed on wild oat (assay: Test Example 4: herbicidal effect by soil treatment (Table 19, symbol I)). Conditions: amount of applied herbicide 320 g/ha.
Format: in vivo, wild oat (Avena fatua)
Method in brief: as §3
Cc1nn(C)c(=O)c(-c2c(-c3ccc4c(c3)CCO4)sc3ccccc23)c1O [1-101] was tested, and the “herbicidal effect rating, I: wild oat” value was 0 (Herbicidal rate of 5% or less (almost no effect)). In the case of CCCC(=O)Oc1c(C)nn(C)c(=O)c1-c1c(-c2ccc3c(c2)CCO3)sc2ccccc12 [1-102], the “herbicidal effect rating, I: wild oat” value was 1 (Herbicidal rate of 5% or more and less than 20%).

The compounds below were run on redroot pigweed (assay: Test Example 4: herbicidal effect by soil treatment (Table 19, symbol N)). Conditions: amount of applied herbicide 320 g/ha.
Format: in vivo, redroot pigweed (Amaranthus retroflexus)
Method in brief: as §3
For Cc1nn(C)c(=O)c(-c2c(-c3ccc4c(c3)CCO4)sc3ccccc23)c1O [1-101], the “herbicidal effect rating, N: redroot pigweed” value was 4 (Herbicidal rate of 70% or more and less than 90%). For CCCC(=O)Oc1c(C)nn(C)c(=O)c1-c1c(-c2ccc3c(c2)CCO3)sc2ccccc12 [1-102], the “herbicidal effect rating, N: redroot pigweed” value was 4 (Herbicidal rate of 70% or more and less than 90%).

What follows are compounds tested on chickweed (assay: Test Example 4: herbicidal effect by soil treatment (Table 19, symbol P)). Conditions: amount of applied herbicide 320 g/ha.
Format: in vivo, common chickweed (Stellaria media)
Method in brief: as §3
For Cc1nn(C)c(=O)c(-c2c(-c3ccc4c(c3)CCO4)sc3ccccc23)c1O [1-101], the “herbicidal effect rating, P: chickweed” value was 5 (Herbicidal rate of 90% or more (almost completely withered)). CCCC(=O)Oc1c(C)nn(C)c(=O)c1-c1c(-c2ccc3c(c2)CCO3)sc2ccccc12 [1-102] was tested, and the “herbicidal effect rating, P: chickweed” value was 5 (Herbicidal rate of 90% or more (almost completely withered)).

What follows are compounds tested on southern crabgrass (assay: Test Example 5: herbicidal effect by foliage application, plastic box (Table 20, symbol F)). Conditions: foliage application, AAH 320 g/ha, three weeks after application.
Format: in vivo, southern crabgrass (Digitaria ciliaris)
Method in brief: (§4)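 Post-emergence foliar test in sterilized diluvial soil. Compound applied as water-diluted emulsion at a predetermined rate to 14-day-old plants; evaluation at three weeks.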
For Cc1nn(C)c(=O)c(-c2c(-c3ccc4c(c3)CCO4)sc3ccccc23)c1O [1-101], the “F: southern crabgrass, herbicidal effect” value was 5 (Herbicidal rate of 90% or more (almost completely withered)). CCCC(=O)Oc1c(C)nn(C)c(=O)c1-c1c(-c2ccc3c(c2)CCO3)sc2ccccc12 [1-102] was tested, and the “F: southern crabgrass, herbicidal effect” value was 4 (Herbicidal rate of 70% or more and less than 90%).

These compounds were tested on green foxtail (assay: Test Example 5: herbicidal effect by foliage application, plastic box (Table 20, symbol G)). Conditions: foliage application, AAH 320 g/ha, three weeks after application.
Format: in vivo, green foxtail (Setaria viridis)
Method in brief: as §4
With Cc1nn(C)c(=O)c(-c2c(-c3ccc4c(c3)CCO4)sc3ccccc23)c1O [1-101] the “G: green foxtail, herbicidal effect” value was 5 (Herbicidal rate of 90% or more (almost completely withered)). In the case of CCCC(=O)Oc1c(C)nn(C)c(=O)c1-c1c(-c2ccc3c(c2)CCO3)sc2ccccc12 [1-102], the “G: green foxtail, herbicidal effect” value was 5 (Herbicidal rate of 90% or more (almost completely withered)).

What follows are compounds tested on barnyard grass (assay: Test Example 5: herbicidal effect by foliage application, plastic box (Table 20, symbol H)). Conditions: foliage application, AAH 320 g/ha, three weeks after application.
Format: in vivo, barnyard grass (Echinochloa crus-galli)
Method in brief: as §4
With Cc1nn(C)c(=O)c(-c2c(-c3ccc4c(c3)CCO4)sc3ccccc23)c1O [1-101] the “H: barnyard grass, herbicidal effect” value was 4 (Herbicidal rate of 70% or more and less than 90%). For CCCC(=O)Oc1c(C)nn(C)c(=O)c1-c1c(-c2ccc3c(c2)CCO3)sc2ccccc12 [1-102], the “H: barnyard grass, herbicidal effect” value was 3 (Herbicidal rate of 40% or more and less than 70%).

Each compound was assayed on wild oat (assay: Test Example 5: herbicidal effect by foliage application, plastic box (Table 20, symbol I)). Conditions: foliage application, AAH 320 g/ha, three weeks after application.
Format: in vivo, wild oat (Avena fatua)
Method in brief: as §4
Cc1nn(C)c(=O)c(-c2c(-c3ccc4c(c3)CCO4)sc3ccccc23)c1O [1-101] was tested, and the “I: wild oat, herbicidal effect” value was 3 (Herbicidal rate of 40% or more and less than 70%). With CCCC(=O)Oc1c(C)nn(C)c(=O)c1-c1c(-c2ccc3c(c2)CCO3)sc2ccccc12 [1-102] the “I: wild oat, herbicidal effect” value was 1 (Herbicidal rate of 5% or more and less than 20%).

The compounds below were run on windgrass (assay: Test Example 5: herbicidal effect by foliage application, plastic box (Table 20, symbol L)). Conditions: foliage application, AAH 320 g/ha, three weeks after application.
Format: in vivo, windgrass (Apera spica-venti)
Method in brief: as §4
Cc1nn(C)c(=O)c(-c2c(-c3ccc4c(c3)CCO4)sc3ccccc23)c1O [1-101] was tested, and the “L: windgrass, herbicidal effect” value was 5 (Herbicidal rate of 90% or more (almost completely withered)). With CCCC(=O)Oc1c(C)nn(C)c(=O)c1-c1c(-c2ccc3c(c2)CCO3)sc2ccccc12 [1-102] the “L: windgrass, herbicidal effect” value was 0 (Herbicidal rate of 5% or less (almost no effect)).

The compounds below were run on chickweed (assay: Test Example 5: herbicidal effect by foliage application, plastic box (Table 20, symbol P)). Conditions: foliage application, AAH 320 g/ha, three weeks after application.
Format: in vivo, common chickweed (Stellaria media)
Method in brief: as §4
With Cc1nn(C)c(=O)c(-c2c(-c3ccc4c(c3)CCO4)sc3ccccc23)c1O [1-101] the “P: chickweed, herbicidal effect” value was 5 (Herbicidal rate of 90% or more (almost completely withered)). In the case of CCCC(=O)Oc1c(C)nn(C)c(=O)c1-c1c(-c2ccc3c(c2)CCO3)sc2ccccc12 [1-102], the “P: chickweed, herbicidal effect” value was 5 (Herbicidal rate of 90% or more (almost completely withered)).

Each compound was assayed on persian speedwell (assay: Test Example 5: herbicidal effect by foliage application, plastic box (Table 20, symbol R)). Conditions: foliage application, AAH 320 g/ha, three weeks after application.
Format: in vivo, Persian speedwell (Veronica persica)
Method in brief: as §4
In the case of Cc1nn(C)c(=O)c(-c2c(-c3ccc4c(c3)CCO4)sc3ccccc23)c1O [1-101], the “R: persian speedwell, herbicidal effect” value was 5 (Herbicidal rate of 90% or more (almost completely withered)). For CCCC(=O)Oc1c(C)nn(C)c(=O)c1-c1c(-c2ccc3c(c2)CCO3)sc2ccccc12 [1-102], the “R: persian speedwell, herbicidal effect” value was 5 (Herbicidal rate of 90% or more (almost completely withered)).
